Data as given in PubChem BioAssay (NCI).
Where “and” joins values, the source holds several entries; their conditions need not be identical. Identical values can stand only once.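 Results reflect a 48-hour exposure of cells in 96-well plates to compound at five concentrations. Here, GI50 denotes the concentration required for 50% inhibition of growth. TGI: concentration producing complete growth inhibition.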

Key:
Assay in all cases: NCI-60 cell line screen, 48 h
CAKI-1 renal = test system: CAKI-1 renal
EKVX NSCLC = test system: EKVX NSCLC
HCC-2998 colon = test system: HCC-2998 colon
HCT-116 colon = test system: HCT-116 colon
HCT-15 colon = test system: HCT-15 colon
M14 melanoma = test system: M14 melanoma
NCI-H522 lung = test system: NCI-H522 lung
RXF 393 renal = test system: RXF 393 renal
SNB-19 CNS = test system: SNB-19 CNS
TK-10 renal = test system: TK-10 renal

Compound | TGI (CAKI-1 renal) | TGI (EKVX NSCLC) | TGI (HCC-2998 colon) | TGI (HCT-116 colon) | TGI (HCT-15 colon) | TGI (M14 melanoma) | TGI (NCI-H522 lung) | TGI (RXF 393 renal) | TGI (SNB-19 CNS) | TGI (TK-10 renal) | GI50 (CAKI-1 renal) | GI50 (EKVX NSCLC) | GI50 (HCC-2998 colon) | GI50 (HCT-116 colon) | GI50 (HCT-15 colon) | GI50 (M14 melanoma) | GI50 (NCI-H522 lung) | GI50 (RXF 393 renal) | GI50 (SNB-19 CNS) | GI50 (TK-10 renal)
O=C(/C=N/O)Nc1cccc(Cl)c1I | > 100 µM | 79.4 µM | > 100 µM | > 100 µM | > 100 µM | > 100 µM | > 100 µM | 74.9 µM | > 100 µM | > 100 µM | – | – | – | – | – | – | – | – | – | –
Cc1nc2sc(C(=O)Nc3cccc(Cl)c3)c(N)c2cc1C(O)c1ccccc1 (configuration not stated) | 17 µM | 26.1 µM | 10.5 µM | > 100 µM | 46.8 µM | > 100 µM | 18.3 µM | 11.5 µM | 20.3 µM | 33.6 µM | 0.789 µM | 3.39 µM | 1.98 µM | 0.426 µM | 0.384 µM | 0.709 µM | 1.15 µM | 0.722 µM | 2.33 µM | 3.77 µM
Nc1nc2c([nH]1)c1[nH]c3ccccc3c1c1[nH]c3ccccc3c21 | 29.5 µM | 30.8 µM | 5.75 µM | 18 µM | 31.4 µM | 27.8 µM | 34.1 µM | 19.4 µM | 25.5 µM | 37.7 µM | 16 µM | 14.1 µM | 2.26 µM | 5.24 µM | 13.6 µM | 14.4 µM | 17.2 µM | 6.08 µM | 12.8 µM | 22.7 µM
c1ccc2c(c1)n1nnnc1c1nnnn21 | > 100 µM | > 100 µM | > 100 µM | > 100 µM | > 100 µM | > 100 µM | > 100 µM | > 100 µM | > 100 µM | > 100 µM | – | – | – | – | – | – | – | – | – | –
COc1cc(-c2ccc[nH]2)[nH]c1/C=C1\N=C(C)C(C(=O)NC(C)C)=C1C | 10.9 µM | 23.2 µM | 13.8 µM | 4.25 µM | 13.5 µM | 4.4 µM | 6.65 µM | 9.66 µM | 23.8 µM | 9.71 µM | 2.8 µM | 6.35 µM | 2.87 µM | 1.52 µM | 2.08 µM | 1.97 µM | 2.15 µM | 2.28 µM | 10.4 µM | 3.1 µM
Fc1cccc(C2ON=C(c3ccccc3)N2C23CC4CC(CC(C4)C2)C3)c1 (configuration not stated) | > 10 µM | > 10 µM | > 10 µM | > 10 µM | > 10 µM | > 10 µM | > 10 µM | > 10 µM | > 10 µM | > 10 µM | – | – | – | – | – | – | – | – | – | –
O=S1(=O)CS(=O)(=O)OCCCCCO1 | > 100 µM | > 100 µM | > 100 µM | > 100 µM | > 100 µM | > 100 µM | > 100 µM | > 100 µM | > 100 µM | > 100 µM | – | – | – | – | – | – | – | – | – | –
CC1(C)N=C(N)N=C(N)N1c1ccc(CCCCCCc2ccc(S(=O)(=O)F)cc2)cc1 | 44.3 µM | 21.3 µM | 16 µM | 15.3 µM | 20.9 µM | 28.7 µM | 20.2 µM | > 33.1 µM | 5.17 µM | 15.9 µM | – | – | – | – | – | – | – | – | – | –
COc1ccc2c(c1)CCC1C2CCC2(C)C(NC(=O)CCCCC3CCSS3)CCC12 (configuration not stated) | > 100 µM | > 100 µM | > 100 µM | > 100 µM | > 100 µM | > 100 µM | > 100 µM | > 100 µM | > 100 µM | > 100 µM | 23.9 µM | > 100 µM | 30.7 µM | 11.2 µM | 8.21 µM | 16.8 µM | 9.4 µM | 27 µM | > 100 µM | 16.1 µM
CCCCCCC1CCCCN1C(c1ccccc1)C(O)c1ccccc1 (configuration not stated) | 14.6 µM | 21.3 µM | 10.4 µM | 11.7 µM | 18.1 µM | 11.4 µM | 18.5 µM | 6.77 µM | 30 µM | 27.6 µM | 3.72 µM | 5.87 µM | 3.65 µM | 3.11 µM | 5.39 µM | 2.95 µM | 5.1 µM | 2.18 µM | 15.1 µM | 14.2 µM
Cc1ccccc1NC(=O)C(=O)CC(=O)c1sc(-n2nc(-c3ccccc3)cc2-c2ccccc2)nc1C | > 100 µM | > 100 µM | > 100 µM | > 100 µM | > 100 µM | > 100 µM | > 100 µM | > 100 µM | > 100 µM | > 100 µM | – | – | – | – | – | – | – | – | – | –
COc1cc(OC)c(OC)cc1/C=C\c1ccnc2ccccc12 | > 79.5 µM | > 46.3 µM | 17.8 µM | 54.8 µM | > 100 µM | 38.9 µM | 4.25 µM | 5.28 µM | > 74.5 µM | 31.4 µM | – | – | – | – | – | – | – | – | – | –
NCC[PH+](c1ccccc1)c1ccccc1.NCC[PH+](c1ccccc1)c1ccccc1.[Cl-].[Pt+4] | > 100 µM | > 100 µM | > 100 µM | > 100 µM | > 100 µM | > 100 µM | > 100 µM | > 100 µM | > 100 µM | > 100 µM | > 100 µM | > 100 µM | > 100 µM | 46.1 µM | > 100 µM | > 100 µM | > 87.1 µM | > 100 µM | 46.1 µM | > 100 µM
CCCC/C=C1/CCC(CN(C)C)C1=O (configuration not stated) | 1.78 µM | 4.48 µM | 3.07 µM | 4.01 µM | 1.08 µM | 3.26 µM | 1.39 µM | 3.38 µM | 12.3 µM | 2.51 µM | – | 2.14 µM | – | – | – | – | – | – | – | –
COc1ccc(N=C2C(=O)Nc3ccc(Br)cc32)cc1 | 60.6 µM | 47.1 µM | 37.4 µM | 35.2 µM | 44 µM | 37.2 µM | 24.9 µM | 36.9 µM | > 100 µM | 56.9 µM | – | – | – | – | – | – | – | – | – | –
CNc1ccc(CSc2ccc(C)cc2)cc1 | > 100 µM | > 100 µM | 83.2 µM | > 100 µM | 35.6 µM | 32.6 µM | 23.7 µM | 87.2 µM | > 100 µM | > 100 µM | 7.94 µM | 15.3 µM | 18.8 µM | 32.9 µM | 12.6 µM | 13.6 µM | 3.62 µM | 11.4 µM | 38.6 µM | 40.3 µM
O=C([CH-]C(=O)c1ccccc1)c1ccccc1.[CH2-]C.[CH2-]C.[Tl+3] | > 96.3 µM | 80.1 µM | > 100 µM | 34.2 µM | > 100 µM | 68.5 µM | > 85.2 µM | 88.7 µM | > 100 µM | > 100 µM | 27.2 µM | 19.7 µM | 28.7 µM | 9.72 µM | 15.4 µM | 18.5 µM | 21.5 µM | 16.5 µM | 31.2 µM | 55 µM
CC(C)(C)OC(=O)CC(S(=O)(=O)c1ccccc1)S(=O)(=O)c1ccccc1 | 3.52 µM | 39.4 µM | 29.6 µM | 2.78 µM | 3.71 µM | 22.7 µM | 3.53 µM | 3.31 µM | > 100 µM | 3.02 µM | 1.66 µM | 19.6 µM | 16 µM | 1.46 µM | 1.87 µM | 10.3 µM | 1.65 µM | 1.8 µM | > 100 µM | 1.6 µM
CNC(=O)N(CCCCC(NC(C)=O)C(=O)NCc1ccccc1)Cc1ccccc1 (configuration not stated) | > 100 µM | > 100 µM | > 100 µM | > 100 µM | > 100 µM | > 100 µM | > 100 µM | > 100 µM | > 100 µM | > 100 µM | – | – | – | – | – | – | – | – | – | –
CN(Cc1cnc2nc(N)nc(N)c2n1)c1c(Cl)cc(C(=O)NC(CCC(=O)O)C(=O)O)cc1Br (configuration not stated) | 0.0671 µM | > 100 µM | 0.153 µM | > 100 µM | > 100 µM | > 100 µM | > 100 µM | > 100 µM | > 100 µM | > 100 µM | < 0.01 µM | < 0.0282 µM | < 0.01 µM | < 0.01 µM | < 0.01 µM | < 0.01 µM | 0.0391 µM | 0.345 µM | 0.031 µM | < 0.01 µM
c1ccc2[nH]c(-c3cscn3)nc2c1 | > 100 µM and 37.2 µM | > 100 µM | > 100 µM | > 100 µM | > 100 µM | > 100 µM | > 100 µM | > 100 µM | > 100 µM | > 100 µM | – | – | – | – | – | – | – | > 100 µM and 49.1 µM | – | –
NC(=O)N1N=C2c3ccccc3OC[C@H]2[C@@H]1c1ccccc1 | > 100 µM | > 100 µM | > 37.1 µM | > 39.2 µM | > 81.6 µM | 5.59 µM | 12.7 µM | 8.7 µM | > 100 µM | > 100 µM | – | – | – | – | – | – | – | – | – | –
COc1cc2ccc(CC(=O)O)cc2cc1OC | > 100 µM | > 100 µM | > 100 µM | > 100 µM | > 100 µM | > 100 µM | > 100 µM | > 100 µM | > 100 µM | > 100 µM | – | – | – | – | – | – | – | – | – | –
O=C(O)c1cc2ccc(Cl)cc2c(O)c1C1=CCCCC1 | 96.4 µM | > 100 µM | > 100 µM | > 100 µM | > 100 µM | > 100 µM | 92.9 µM | > 100 µM | > 100 µM | > 100 µM | – | – | – | – | – | – | – | – | – | –
